From the NIST ThermoML archive (doi:10.1016/j.jct.2011.02.011)
Where “and” joins values, the source holds several entries; their conditions need not be identical. Identical values can stand only once. ± gives the expanded uncertainty stated by the source.

Settings: Crystal, Calculated from knudsen effusion weight loss

[O-][n+]1ccccc1-c1ccccn1 [2,2'-bipyridyl N-oxide]
vapor or sublimation pressure (319.17 K): 5.02e-05 ± 2.5e-06 kPa and 4.83e-05 ± 2.4e-06 kPa and 4.82e-05 ± 2.4e-06 kPa | vapor or sublimation pressure (321.15 K): 6.32e-05 ± 3.2e-06 kPa and 6.13e-05 ± 3.1e-06 kPa | vapor or sublimation pressure (323.16 K): 7.8e-05 ± 3.9e-06 kPa and 8.26e-05 ± 4.1e-06 kPa and 7.96e-05 ± 4e-06 kPa | vapor or sublimation pressure (325.15 K): 0.0001 ± 5e-06 kPa and 9.94e-05 ± 5e-06 kPa and 0.000102 ± 5e-06 kPa | vapor or sublimation pressure (327.14 K): 0.000126 ± 6e-06 kPa and 0.000128 ± 6e-06 kPa and 0.000127 ± 6e-06 kPa | vapor or sublimation pressure (329.16 K): 0.000163 ± 8e-06 kPa and 0.000161 ± 8e-06 kPa and 0.000162 ± 8e-06 kPa | vapor or sublimation pressure (331.13 K): 0.000201 ± 1e-05 kPa and 0.000198 ± 1e-05 kPa and 0.0002 ± 1e-05 kPa
